According to patent US11446315B2, “Enhancement of CD47 blockade therapy by proteasome inhibitors” (PF Argentum IP Holdings LLC, priority 2016, dated 2022):

Experiments:
Assay type in all cases: cell-based, human
[1] = test system: MM1s multiple myeloma cell line; experiment: Macrophage phagocytosis assay, MM1s tumor cells pre-cultured with proteasome inhibitor (FIGS. 1A, 2A)
Method: (§1) FIGS. 1A and 1B show results when the multiple myeloma cell lines MM1s and H929 are cultured in the presence of the proteasome inhibitor bortezomib (at either 1, 5 or 10 nM) for 48 hours. The 0 result represents phagocytosis of cells that were not treated with bortezomib. Cells are then washed; macrophages and SIRPαFc (at 1, 5 or 100 nM) or Control Fc are added and the mixture is then subjected to the phagocytosis assay described herein.
(§2) FIGS. 2A and 2B show results from an experiment in which bortezomib is replaced by the proteasome inhibitor carfilzomib, which is then investigated as described in FIGS. 1A-1B. The 0 result represents phagocytosis of cells that were not treated with carfilzomib.
(§3) To generate the results represented in FIGS. 1A-1B and 2A-2B, heparinized whole blood was obtained from normal healthy human donors (Biological Specialty Corporation) and informed consent was obtained from all donors. Peripheral blood mononuclear cells (PBMCs) were isolated over Ficoll-Paque Plus density gradient (GE Healthcare) and CD14+ monocytes were isolated from PBMCs by positive selection using CD14 antibody-coated MicroBead separation (Miltenyi Biotec). […] Phagocytosis was assessed as % VPD450+ cells of live, single CD14+CD11b+macrophages by flow cytometry. […]

[2] = test system: SU-DHL-6 diffuse large cell lymphoma (DLBCL) cell line; experiment: Macrophage phagocytosis assay, SU-DHL-6 tumor cells pre-cultured with proteasome inhibitor (FIGS. 3A-3F); conditions: SU-DHL-6 cultured 48 hours in bortezomib (10 nM), carfilzomib (10 nM) or ixazomib (25 nM); CD47 blockade drug at 100 nM, 2 hours co-culture; untreated vs proteasome inhibitor treated tumor cells, unpaired t-test
Method: (§4) FIGS. 3A-3F show the effect of proteasome inhibition on phagocytosis mediated by CD47 blockade, from an experiment supplemental to that represented in FIGS. 1A-1B and 2A-2B. The diffuse large cell lymphoma (DLBCL) cell line SU-DHL-6 and the multiple myeloma (MM) cell line MM1.S were cultured in the presence or absence of the proteasome inhibitors bortezomib (10 nM), carfilzomib (10 nM) or ixazomib (25 nM) for 48 hours. Cells were thereafter washed; macrophages and SIRPαFc proteins, CD47 monoclonal antibody (CD47 mAb) or Control Fc (at 100 nM) were added, and the mixture was then subjected to the phagocytosis assay as described infra.
(§5) To generate the results represented in FIGS. 3A-3F, macrophages were prepared from human peripheral blood mononuclear cells (PBMCs) obtained from healthy donors (BioreclamationIVT); informed consent was obtained from all donors. CD14+ monocytes were isolated by positive selection using the EasySep® human monocyte isolation kit (Stemcell Technologies). Monocytes were differentiated into macrophages by culturing the cells in X-VIVO 15 media (Lonza) supplemented with human m-CSF (PeproTech) for 10 days. Macrophages were primed with human IFNγ (PeproTech) one day prior to the phagocytosis assay. 48 hours prior to the phagocytosis assay, bortezomib (10 nM), carfilzomib (10 nM) or ixazomib (25 nM) were added to tumor cells. On the day of the phagocytosis assay, tumor cells (MM1.S or SU-DHL-6) were labeled with Violet Proliferation Dye 450 (BD Biosciences) and cultured with IFNγ-primed macrophages. Macrophages and tumor cells were co-cultured for 2 hours in the presence of 100 nM SIRPαFc (V region of human SIRPα variant 2 fused with IgG1 Fc), SIRPαFc (V region of human SIRPα variant 2 fused with IgG4 Fc), vSIRPαFc (high affinity CV1 variant of V region of human SIRPα fused with mutated IgG4) [SEQ ID No. 12], CD47 monoclonal antibody B6H12 [SEQ ID Nos. 13 and 14] or Control Fc (wild type human IgG4 with stabilized hinge). Cells were subsequently stained with a viability dye, APC-conjugated anti-human CD14 (61D3, eBioscience), and PE-conjugated anti-human CD11b (ICRF44, eBioscience). Macrophages were identified as live, single, CD14+CD11b+ cells. Doublets were excluded by SSC-W and SSC-H discrimination. Percent phagocytosis was assessed as the percent of macrophages that were VPD450+. Unpaired t-tests comparing the percentage of phagocytosis of untreated vs proteasome inhibitor treated tumor cells were performed (*P≤0.05, **P≤0.01, ***P≤0.001).

[3] = test system: MM1.S multiple myeloma (MM) cell line; experiment: Macrophage phagocytosis assay, MM1.S tumor cells pre-cultured with proteasome inhibitor (FIGS. 3A-3F); conditions: MM1.S cultured 48 hours in bortezomib (10 nM), carfilzomib (10 nM) or ixazomib (25 nM); CD47 blockade drug at 100 nM, 2 hours co-culture; untreated vs proteasome inhibitor treated tumor cells, unpaired t-test
Method: as §4, §5

[4] = test system: H929 multiple myeloma cell line; experiment: Macrophage phagocytosis assay, H929 tumor cells pre-cultured with proteasome inhibitor (FIGS. 1B, 2B)
Method: as §1, §2, §3

CC(C)C[C@H](NC(=O)[C@H](CCc1ccccc1)NC(=O)CN1CCOCC1)C(=O)N[C@@H](Cc1ccccc1)C(=O)N[C@@H](CC(C)C)C(=O)[C@@]1(C)CO1 [carfilzomib]
SIRPαFc-mediated phagocytosis (% VPD450+ of live, single CD14+CD11b+ macrophages) ([1]; MM1s cultured in 10 nM carfilzomib for 48 hours, at all concentrations of SIRPαFc tested (1, 5 or 100 nM), versus cells not treated with carfilzomib): significant increase in SIRPαFc-mediated phagocytosis
Percent phagocytosis mediated by CD47 blockade (percent of macrophages VPD450+) [2]: significantly increased SIRPαFc-mediated phagocytosis or CD47 mAb-mediated phagocytosis
Percent phagocytosis mediated by CD47 blockade (percent of macrophages VPD450+) [3]: significantly increased SIRPαFc-mediated phagocytosis or CD47 mAb-mediated phagocytosis
SIRPαFc-mediated phagocytosis (% VPD450+ of live, single CD14+CD11b+ macrophages) ([4]; H929 cultured in 10 nM carfilzomib for 48 hours, at all concentrations of SIRPαFc tested (1, 5 or 100 nM), versus cells not treated with carfilzomib): significant increase in SIRPαFc-mediated phagocytosis

SIRPαFc (V region of human SIRPα variant 2 fused with IgG4 Fc): V region of human SIRPα variant 2 fused with IgG4 Fc
Percent phagocytosis mediated by CD47 blockade (percent of macrophages VPD450+) [2]: significant increase in phagocytosis
Percent phagocytosis mediated by CD47 blockade (percent of macrophages VPD450+) [3]: significant increase in phagocytosis

CC(C)C[C@H](NC(=O)CNC(=O)c1cc(Cl)ccc1Cl)B(O)O [ixazomib]
Percent phagocytosis mediated by CD47 blockade (percent of macrophages VPD450+) [2]: significantly increased SIRPαFc-mediated phagocytosis or CD47 mAb-mediated phagocytosis
Percent phagocytosis mediated by CD47 blockade (percent of macrophages VPD450+) [3]: significantly increased SIRPαFc-mediated phagocytosis or CD47 mAb-mediated phagocytosis

CC(C)C[C@H](NC(=O)[C@H](Cc1ccccc1)NC(=O)c1cnccn1)B(O)O [bortezomib]
SIRPαFc-mediated phagocytosis (% VPD450+ of live, single CD14+CD11b+ macrophages) ([1]; MM1s cultured in bortezomib (1, 5 or 10 nM) for 48 hours, then macrophages and SIRPαFc (1, 5 or 100 nM), versus cells not treated with bortezomib): increased SIRPαFc-mediated phagocytosis
Percent phagocytosis mediated by CD47 blockade (percent of macrophages VPD450+) [2]: significantly increased SIRPαFc-mediated phagocytosis or CD47 mAb-mediated phagocytosis
Percent phagocytosis mediated by CD47 blockade (percent of macrophages VPD450+) [3]: significantly increased SIRPαFc-mediated phagocytosis or CD47 mAb-mediated phagocytosis
SIRPαFc-mediated phagocytosis (% VPD450+ of live, single CD14+CD11b+ macrophages) ([4]; H929 cultured in bortezomib (1, 5 or 10 nM) for 48 hours, then macrophages and SIRPαFc (1, 5 or 100 nM), versus cells not treated with bortezomib): increased SIRPαFc-mediated phagocytosis

B1: CD47 mAb: CD47 monoclonal antibody B6H12, variable regions SEQ ID Nos. 13 and 14 (antibody, V domains shown)
VH: EVQLVESGGDLVKPGGSLKLSCAASGFTFSGYGMSWVRQTPDKRLEWVATITSGGTYTYYPDSVKGRFTISRDNAKNTLYLQIDSLKSEDTAIYFCARSLAGNAMDYWGQGTSVTVSS
VL: DIVMTQSPATLSVTPGDRVSLSCRASQTISDYLHWYQQKSHESPRLLIKFASQSISGIPSRFSGSGSGSDFTLSINSVEPEDVGVYYCQNGHGFPRTFGGGTKLEIK
modifications: Murine
Percent phagocytosis mediated by CD47 blockade (percent of macrophages VPD450+) [2]: significant increase in phagocytosis
Percent phagocytosis mediated by CD47 blockade (percent of macrophages VPD450+) [3]: significant increase in phagocytosis

B2: vSIRPαFc: high affinity CV1 variant of V region of human SIRPα fused with mutated IgG4, SEQ ID No. 12 (protein, listed as Homo sapiens)
chain: EEELQIIQPDKSVSVAAGESAILHCTITSLFPVGPIQWFRGAGPARVLIYNQRQGPFPRVTTVSETTKRENMDFSISISNITPADAGTYYCIKFRKGSPDTEFKSGAGTELSVRAKPSESKYGPPCPPCPAPPVAGPSVFLFPPKPKDTLMISRTPEVTCVVVDVSQEDPEVQFNWYVDGVEVHNAKTKPREEQFNSTYRVVSVLTVLHQDWLNGKEYKCKVSNKGLPSSIEKTISKAKGQPREPQVYTLPPSQEEMTKNQVSLTCLVKGFYPSDIAVEWESNGQPENNYKTTPPVLDSDGSFFLYSRLTVDKSRWQEGNVFSCSVMHEALHNHYTQKSLSLSLGK
Percent phagocytosis mediated by CD47 blockade (percent of macrophages VPD450+) [2]: significant increase in phagocytosis
Percent phagocytosis mediated by CD47 blockade (percent of macrophages VPD450+) [3]: significant increase in phagocytosis
